“Also recorded” adds a separate entry of the source. Like-named read-outs stand apart in the source and are kept apart here.
Assays:
[1] = Pharmacokinetics IV and PO in CD-1 mice, plasma; assay type: in vivo; conditions: mouse plasma
Description: The PK studies were done at NIH or a commercial CRO—Pharmacon using their in-house standard protocol. […] For C99, IV and PO, performed at NIH using CD-1 mice; formulation: 20% HPbCD in saline.

[2] = system: SNU398 human HCC cells; assay: AldeRed (Aldefluor) assay in SNU398 cells; assay type: cell-based
Method: (§1) The AldeRed assay (EMD Millipore) was performed according to manufacturer's instructions to identify cells with ALDH activity. In brief, single-cell suspensions of Huh7, Huh1, SNU449, SNU398, HEP3B, PLC, Hepa 1-6, Hep55, and AL458A cultured cells or single-cell suspension generated from enzymatic digestion of tumors generated from transplantation of these cells in mice (as indicated in figure legends) were incubated with a fluorescent and non-toxic ALDH substrate (AldeRed 588-A); the fluorescent product accumulates in cells proportional to their ALDH activity. The amount of fluorescence produced is measured by flow cytometry. The ALDH inhibitor diethylaminobenzaldehyde (DEAB, provided with the AldeRed assay kit) was used as a negative control for background fluorescence assessment.
The Aldefluor assay has been used to identify and isolate cells with high ALDH activities. This assay is based on the principle that ALDH can convert the ALDH-substrate, Bodipy-aminoacetaldehyde (BAAA) into Bodipy-aminoacetate (BAA) which is retained inside the cells. BAAA is uncharged and can diffuse freely into intact viable cells, however BAA cannot cross the membrane due to its net negative charge, which makes remain in the cells and the assay buffer prevents efflux of the BAA from the cells. Therefore, the amount of BAA fluorescence in cells is proportional to ALDH activity and can be measured using a flow cytometer. A specific inhibitor of ALDH, diethylaminobenzaldehyde (DEAB), is used for background fluorescence control.

[3] = system: SNU398 cells; assay: RT-qPCR of Raldh1, Raldh2 and Raldh3 transcripts in SNU398 cells; assay type: cell-based, human; conditions: SNU398, 24 hours
Method: FIG. 21A: Transcript levels (RT-qPCR) of Raldh1, Raldh2 and Raldh3 in SNU398 cells treated with different concentrations of C86 or C91 for 24 hours. FIG. 21B: Homology modeling identifies differences in amino acid residues between human and murine RALDH1 at sites predicted to bind RALDH1-INH. FIG. 21C: SNU398 cells were treated with various concentrations of C86 or C91 for 24 hours. Cell viability was measured by flow cytometry (FCM) with 7-AAD staining (Y-axis indicates percentage of 7-AAD negative cells).
Total RNA from mouse tissue samples and in vitro cultured cells was isolated using GenElute Mammalian Total RNA Miniprep Kit (Sigma) following the manufacturer's protocol. Total RNA from human FFPE samples was isolated by using Quick-RNA FFPE Miniprep Kit (Zymo Research) using the manufacturer's protocol. 1000 ng of RNA was used for reverse transcription using High Capacity RNA to cDNA Kit (Life Technologies). The cDNA product was 10× diluted. 2.5 μL of this cDNA was used for qPCR for each sample. Three or more replicates were used for each reaction. […] Expression fold was calculated as 2^−(CT target gene−CT housekeeping gene). Quantitative PCRs were run on a Viia 7 real time PCR system (ThermoFisher). The following target and housekeeping genes were measured using the commercially available TaqMan probes (ThermoFisher): […]

[4] = mouse, in vivo
Method: Male CD1 or C57BL/6J mice between 6 and 8 weeks old and weighing approximately 20 to 30 grams were dosed with compound 86, compound 91, and compound 99 at 2 mg/kg (IV), 10 mg/kg (PO), and 10 or 30 mg/kg (IP). The compounds were formulated using a 20% hydroxypropyl-beta-cyclodextrin (HPbCD) solution in saline, was made on the day of dosing or directly prior to dosing. Each treatment group consisted of three mice, and plasma was collected at 5 minutes, 15 minutes, 30 minutes, 1 hour, 2 hours, 4 hours, 8 hours, 12 hours, and 24 hours post-dose for IV administration and at 15 minutes, 30 minutes, 1 hour, 2 hours, 4 hours, 8 hours, 12 hours, and 24 hours post-dose for PO administration. Approximately 0.025 mL of blood was collected from the dorsal metatarsal vein at each time point. […] Plasma samples were then stored in polypropylene tubes, quickly frozen, and kept at −75° C. until analyzed by LC/MS/MS. The following pharmacokinetic parameters were measured: Terminal half-life (T½), Concentration at immediately after injection (C0), Maximum concentration (Cmax), Time to reach max concentration (Tmax), Clearance (CL), Volume of distribution (Vd), Area under the curve (AUClast), and bioavailability (% F). Animals were also monitored during the in-life phase by once daily cage side observations; any adverse clinical signs were noted as part of the PK report.

[5] = system: murine HCC cell line (Hepa1-6); assay: AldeRed assay in Hepa1-6 cells; assay type: cell-based, mouse
Method: Cultures of tumor cells or primary monocyte-derived cells were treated with C86, C91, C99, BMS 493 (Tocris, 3509) or Win 18446 (Tocris, 4736) at a time and concentration indicated in corresponding figure legends.
as §1

[6] = system: SNU398 cells; assay: In vitro proliferation and viability of human HCC cell lines; assay type: cell-based
Method: FIG. 20D: LC-MS for ATRA on Hepa1-6 (mouse HCC cell line) or SNU398 (human HCC cell line). […] Two independent experiments were performed with at least three replicates per experimental group. Unpaired t test, two-tailed. *, P<0.05; **, P<0.01; ***, P<0.001. […] Cell proliferation was measured by counting live cell numbers at each time point. […] Cell proliferation was measured by counting live cell numbers at each time point.
Cell viability was measured by flow cytometry (FCM) with 7-AAD staining (Y-axis indicates percentage of 7-AAD negative cells).
1×10^4~2×10^5 of Huh7, Huh1, Hepa 1-6, and Hep55 tumor cells were plated in triplicate in 48-well plates or 6-well plates. Viable cell numbers were counted every day for three to four days.

[7] = system: murine fibrosarcoma (FS) cell line; assay: FS murine fibrosarcoma in C57BL6/J mice; assay type: in vivo, mouse; conditions: 25 mg/kg everyday
Method: FIGS. 28A-28G: C99 inhibits murine RALDH1 and suppresses murine HCC growth. FIG. 28A: AldeRed assay was performed on Hepa1-6 (murine HCC, left graph) and SNU398 (human HCC, right graph) cells with or without different concentration of C99 (x-axis). Shown is the percentage of AldeRed-positive cells (y-axis) after 24 hours exposure to C99. Murine RALDH1 is sensitive to C99. FIG. 28B: Hepa1-6 cells were treated with different concentrations of C99 in vitro and the number of viable cells were counted at different time points. […] FIG. 28C: C57BL6/J mice were implanted subcutaneously with Hepa1-6 cells and the tumor-bearing mice. To prevent spontaneous rejection of this cell line, mice were treated with anti-CD3. Once the tumors reached around 50 mm^3 size, mice were treated with C86 or C99 (i.p., 20 mg/kg) every day. […] C99, but not C86, suppresses murine HCC growth. Two independent experiments were performed with at least three replicates per experimental group. […]
Cultured Huh7, Huh1, Hepa 1-6, Hep55, and FS (as indicated in figure legends) tumor cells were detached using 0.25% trypsin (Gibco, catalog #25200056), washed once with 1×PBS, and counted before implantation. […] Tumor dimensions were measured using a caliper starting at the day indicated in the accompanying figure legend and every two to three days thereafter; volume was calculated by using formula Length*Width^2/2. […]

[8] = system: human RALDH isozymes; assay: IC50 on human RALDH isozymes (FIG. 29A); assay type: biochemical
[9] = system: Hepa 1-6 cells; assay: In vitro proliferation and viability of Hepa 1-6 cells; assay type: cell-based, mouse; conditions: murine HCC cell line Hepa 1-6
[10] = system: Hepa 1-6 tumors; assay: Hepa 1-6 tumors in mice; assay type: in vivo, mouse
Method: FIGS. 28A-28G: C99 inhibits murine RALDH1 and suppresses murine HCC growth. FIG. 28A: AldeRed assay was performed on Hepa1-6 (murine HCC, left graph) and SNU398 (human HCC, right graph) cells with or without different concentration of C99 (x-axis). Shown is the percentage of AldeRed-positive cells (y-axis) after 24 hours exposure to C99. Murine RALDH1 is sensitive to C99. FIG. 28B: Hepa1-6 cells were treated with different concentrations of C99 in vitro and the number of viable cells were counted at different time points. […] FIG. 28C: C57BL6/J mice were implanted subcutaneously with Hepa1-6 cells and the tumor-bearing mice. To prevent spontaneous rejection of this cell line, mice were treated with anti-CD3. Once the tumors reached around 50 mm^3 size, mice were treated with C86 or C99 (i.p., 20 mg/kg) every day. […] C99, but not C86, suppresses murine HCC growth. Two independent experiments were performed with at least three replicates per experimental group. Unpaired t test, two-tailed. FIG. 28D: Tumors in (FIG. 28C) were harvested at endpoint, single-cell suspension generated, and AldeRed assay was performed along with surface staining with immune cell markers. Shown is the percentage of AldeRed-positive cells in nonleukocytes (CD45 negative, mostly tumor cells) under the different treatment conditions. Two independent experiments were performed with at least three replicates per experimental group. Unpaired t test, two-tailed. FIG. 28E: FCS base frequency of Macrophages (F4/80^+ cells) within CD45^+ leukocytes in tumor tissues from experiment outlined in (FIGS. 28C-28D). Two independent experiments were performed with at least three replicates per experimental group. Unpaired t test, two-tailed. FIG. 28F: Hepa1-6 tumor-bearing NU/J mice were treated with chlodronate liposomes (CloLipo) and/or C86/C99. CloLipo treatment suppresses tumor growth and renders tumors insensitive to C99. Two independent experiments were performed with at least three replicates per experimental group. Unpaired t test, two-tailed. FIG. 28G: The murine fibrosarcoma (FS) cell line was implanted subcutaneously into C57BL6/J mice. Mice were treated with 25 mg/kg of C-99 or vehicle everyday starting one day after tumor cell transplantation. *, P<0.05; **, P<0.01; ***, P<0.001; ns, not significant.
Cultured Huh7, Huh1, Hepa 1-6, Hep55, and FS (as indicated in figure legends) tumor cells were detached using 0.25% trypsin (Gibco, catalog #25200056), washed once with 1×PBS, and counted before implantation. 3~6×10^6 tumor cells were implanted subcutaneously (s.c.) into shaved flanks of recipient mice. Tumor dimensions were measured using a caliper starting at the day indicated in the accompanying figure legend and every two to three days thereafter; volume was calculated by using formula Length*Width^2/2. Tumor volumes of 2,000 mm^3, tumor length of 2 cm or tumor ulceration were used as endpoints for survival analyses.
To deplete T cells, 200 μg of mouse CD3-specific antibody (clone 17A2) was administered i.p. starting three days before tumor implantation and repeated every three to four days until mouse sacrifice. To deplete macrophages, 200 μL of clodronate liposome (CloLipo) or PBS-liposome (CtrlLipo) (both Liposoma) was administered i.p. starting three days prior to tumor implantation and repeated every four days until mouse sacrifice. Macrophage depletion efficacy in spleen and within tumors was confirmed by flow cytometry using canonical macrophage marker F4/80. […]

[11] = intravenous administration, 2 mg/kg
[12] = male, CD-1, intravenous administration, 2 mg/kg
[13] = male, CD-1, oral administration, 10 mg/kg

For CS(=O)(=O)N1CCN(C(=O)c2cnc3ccc(F)cc3c2-c2ccc(C3(C#N)CC3)cc2)CC1 [Compound C-91, 1-(4-(6-fluoro-3-(4-(methylsulfonyl)piperazine-1-carbonyl)quinolin-4-yl)phenyl)cyclopropane-1-carbonitrile], the “AUC0-∞” value [1, 11] was 1830 ng·h/mL, the Cmax [1, 11] was 1997 ng/mL and the Vss [1, 11] was 1.4 L/kg. The “AUC0-∞” value ([1]; oral administration, 10 mg/kg) was 6980 ng·h/mL, the Cmax ([1]; oral administration, 10 mg/kg) was 1530 ng/mL and the F ([1]; oral administration, 10 mg/kg) was 76%. For the same compound, the “RALDH activity, Aldered assay, in HCC cells” value ([2]; FIGS. 7-8) was “significantly reduced RALDH activity”, the “RALDH activity as detected by Aldered (Aldefluor) assay” value ([2]; SNU398 cells in vitro, 100 nM, DMSO control) was “abrogated” and the “transcription of other RALDH isozymes” value [3] was “did not lead to compensatory increases in transcription”. The signs of toxicity [4] was “no signs of toxicity have been observed”, the AldeRed fluorescence ([5]; murine HCC cell line Hepa1-6, 24 hours) was “no change in AldeRed fluorescence; also recorded: failed to reduce AldeRed fluorescence” and the “HCC cell growth in vitro” value ([6]; SNU398, 1, 10, 100 and 1000 nM) was “did not inhibit HCC cell growth in vitro”. The “cell death / cell viability in human HCC cell lines” value ([6]; live cell counts over 3 days, 7-AAD staining 24 hours) was “not due to increased cell death or reduced cell viability”.

Compound C=CS(=O)(=O)N1CCN(c2c(C(=O)N3CCN(S(C)(=O)=O)CC3)cnc3ccc(F)cc23)CC1 [Compound C-99, (6-fluoro-4-(4-(vinylsulfonyl)piperazin-1-yl)quinolin-3-yl)(4-(methylsulfonyl)piperazin-1-yl)methanone] has an AUC(0-inf) [1, 12] of 37 ng·h/mL, a half-life [1, 12] of 6 min and a clearance ([1]; male, CD-1, intravenous administration, 2 mg/kg, read-out: CLp) of 887 mL/min/kg. It also gave a Cmax ([1]; male, CD-1, intravenous administration, 2 mg/kg, read-out: Cmax) of 117 ng/mL, a Vd ([1]; male, CD-1, intravenous administration, 2 mg/kg, read-out: Vss) of 2.7 L/kg and an AUC(0-inf) [1, 13] of 11 ng·h/mL. The half-life [1, 13] was 30 min, the Cmax ([1]; male, CD-1, oral administration, 10 mg/kg, read-out: Cmax) was 16 ng/mL and the F ([1]; oral administration, 10 mg/kg) was 6.3%. The fibrosarcoma growth [7] was “did not suppress fibrosarcoma growth”, the “concentration range suppressing RALDH1 activity” value ([2]; AldeRed assay, FIG. 28A and FIG. 20A) was “micromolar” and the “RALDH1 activity (AldeRed-positive cells)” value ([2]; human HCC cell line, 24 hours exposure) was “suppressed RALDH1 activity”. For the same compound, the “IC50 relative to C86” value [8] was “significantly greater than that of C86”, the “proliferation or viability in vitro” value [9] was “did not reduce proliferation or viability” and the “RALDH1 activity (AldeRed-positive cells)” value ([5]; murine HCC cell line, 24 hours exposure) was “suppressed RALDH1 activity”. For the same compound, the “sensitivity of TAM-depleted tumors to treatment” value ([10]; Hepa 1-6, CloLipo-treated) was “insensitive to C99 treatment”, the “tumor growth in vivo” value ([10]; Hepa 1-6 in C57BL6/J mice treated with anti-CD3, i.p., 20 mg/kg every day) was “significantly suppressed tumor growth in vivo” and the “frequency of TAMs within the TME” value ([10]; Hepa 1-6 tumors at endpoint) was “reduced”. For the same compound, the “AldeRed activity in tumor cells” value ([10]; Hepa 1-6 tumors at endpoint, CD45 negative cells) was “reduced AldeRed activity in tumor cells”.

From US20260248799A1, “COMBINATIONS OF RETINALDEHYDE DEHYDROGENASE 1 (RALDH1) INHIBITORS AND IMMUNOSTIMULATORS AND METHODS USING SAME” (The Trustees of the University of Pennsylvania, priority 2023, published 2026)
